{
  "source": "ChEMBL document CHEMBL1201862",
  "about": "“PubChem BioAssay data set” (2004)",
  "key": {"[1]": {"biological_target": "Intestinal-type alkaline phosphatase (Mus musculus, UniProt P24822)", "sequence (P24822 whole entry)": "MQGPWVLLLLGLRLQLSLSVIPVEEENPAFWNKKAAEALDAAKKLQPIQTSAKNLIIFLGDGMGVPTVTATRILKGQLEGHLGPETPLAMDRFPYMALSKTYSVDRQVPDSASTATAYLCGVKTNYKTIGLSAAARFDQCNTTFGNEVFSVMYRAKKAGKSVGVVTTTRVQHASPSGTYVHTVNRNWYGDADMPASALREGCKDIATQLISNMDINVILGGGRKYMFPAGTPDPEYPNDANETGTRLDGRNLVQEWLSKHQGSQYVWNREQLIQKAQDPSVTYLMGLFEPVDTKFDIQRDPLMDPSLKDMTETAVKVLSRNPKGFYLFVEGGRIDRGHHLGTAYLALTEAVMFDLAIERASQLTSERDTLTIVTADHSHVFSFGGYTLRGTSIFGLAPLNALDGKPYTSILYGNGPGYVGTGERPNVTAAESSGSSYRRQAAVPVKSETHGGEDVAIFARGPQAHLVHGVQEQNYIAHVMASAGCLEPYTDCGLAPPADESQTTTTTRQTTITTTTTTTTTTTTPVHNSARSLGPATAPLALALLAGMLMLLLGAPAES", "experiment": "PubChem AID 488875", "assay_type": "functional"}, "[2]": {"biological_target": "T1, Intestinal-type alkaline phosphatase (Homo sapiens, UniProt P09923)", "T1 sequence (P09923 whole entry)": "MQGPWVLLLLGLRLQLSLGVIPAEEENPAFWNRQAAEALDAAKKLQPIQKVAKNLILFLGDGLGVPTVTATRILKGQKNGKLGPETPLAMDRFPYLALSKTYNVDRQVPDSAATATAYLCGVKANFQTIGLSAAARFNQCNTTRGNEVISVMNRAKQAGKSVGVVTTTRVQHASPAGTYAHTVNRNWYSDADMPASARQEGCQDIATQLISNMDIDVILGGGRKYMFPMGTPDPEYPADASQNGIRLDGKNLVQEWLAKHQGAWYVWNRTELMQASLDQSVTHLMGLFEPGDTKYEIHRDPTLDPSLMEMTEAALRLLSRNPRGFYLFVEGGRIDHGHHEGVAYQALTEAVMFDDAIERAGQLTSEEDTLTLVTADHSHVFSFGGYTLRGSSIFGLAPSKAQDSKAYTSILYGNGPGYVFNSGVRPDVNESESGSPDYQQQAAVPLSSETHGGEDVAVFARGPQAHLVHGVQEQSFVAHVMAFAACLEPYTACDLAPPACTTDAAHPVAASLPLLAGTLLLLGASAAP", "experiment": "human intestinal alkaline phosphatase activators, dose response, biochemical, luminescence, uHTS hits (AID 463120)", "assay_type": "functional"}, "[3]": {"biological_target": "T1, Intestinal-type alkaline phosphatase", "experiment": "activation of human intestinal alkaline phosphatase – biochemical, luminescent, uHTS hits, set 2, dose response (AID 488817)", "assay_type": "functional"}, "[4]": {"biological_target": "T2, Alkaline phosphatase, tissue-nonspecific isozyme (Homo sapiens, UniProt P05186)", "T2 sequence (P05186 whole entry)": "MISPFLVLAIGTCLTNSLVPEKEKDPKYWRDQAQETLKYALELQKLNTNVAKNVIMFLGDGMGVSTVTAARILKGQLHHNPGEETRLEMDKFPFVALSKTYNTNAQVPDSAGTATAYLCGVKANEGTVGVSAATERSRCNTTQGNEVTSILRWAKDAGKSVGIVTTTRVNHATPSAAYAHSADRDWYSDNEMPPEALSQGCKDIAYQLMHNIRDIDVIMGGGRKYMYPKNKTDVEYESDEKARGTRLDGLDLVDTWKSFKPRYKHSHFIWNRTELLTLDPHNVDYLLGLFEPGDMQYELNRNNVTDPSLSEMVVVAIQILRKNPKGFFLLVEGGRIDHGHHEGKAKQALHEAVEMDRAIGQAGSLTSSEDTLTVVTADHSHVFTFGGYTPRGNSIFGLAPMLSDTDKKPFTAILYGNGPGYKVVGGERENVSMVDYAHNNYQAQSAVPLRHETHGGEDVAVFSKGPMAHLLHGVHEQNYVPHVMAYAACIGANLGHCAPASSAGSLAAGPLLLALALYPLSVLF", "experiment": "activation of tissue-nonspecific alkaline phosphatase – biochemical, TNAP isozyme, human IAP uHTS hits, selectivity assay for human IAP activator project, dose response (AID 488886);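 further: potency of compounds raising TNAP activity as a selectivity check on IAP activators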", "assay_type": "functional"}, "[5]": {"biological_target": "G-protein coupled receptor 55 (Homo sapiens, UniProt Q9Y2T6)", "sequence (Q9Y2T6 whole entry)": "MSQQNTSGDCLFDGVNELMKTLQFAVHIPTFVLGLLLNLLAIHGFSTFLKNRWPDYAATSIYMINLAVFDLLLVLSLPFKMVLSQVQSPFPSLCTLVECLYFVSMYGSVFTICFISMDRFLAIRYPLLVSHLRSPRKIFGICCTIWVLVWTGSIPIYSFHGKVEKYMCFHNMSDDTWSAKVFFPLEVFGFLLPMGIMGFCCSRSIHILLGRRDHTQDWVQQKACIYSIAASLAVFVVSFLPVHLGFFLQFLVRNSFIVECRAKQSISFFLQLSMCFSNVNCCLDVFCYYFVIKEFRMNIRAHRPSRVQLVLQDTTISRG", "experiment": "blockers of GPR55 signalling, imaged – imaging, image-based, counter-screen for GPR35 antagonist project, SAR follow-up (AID 2397)", "assay_type": "functional"}, "Cytochrome P450 3A4": {"biological_target": "Cytochrome P450 3A4 (Homo sapiens, UniProt P08684)", "sequence (P08684 whole entry)": "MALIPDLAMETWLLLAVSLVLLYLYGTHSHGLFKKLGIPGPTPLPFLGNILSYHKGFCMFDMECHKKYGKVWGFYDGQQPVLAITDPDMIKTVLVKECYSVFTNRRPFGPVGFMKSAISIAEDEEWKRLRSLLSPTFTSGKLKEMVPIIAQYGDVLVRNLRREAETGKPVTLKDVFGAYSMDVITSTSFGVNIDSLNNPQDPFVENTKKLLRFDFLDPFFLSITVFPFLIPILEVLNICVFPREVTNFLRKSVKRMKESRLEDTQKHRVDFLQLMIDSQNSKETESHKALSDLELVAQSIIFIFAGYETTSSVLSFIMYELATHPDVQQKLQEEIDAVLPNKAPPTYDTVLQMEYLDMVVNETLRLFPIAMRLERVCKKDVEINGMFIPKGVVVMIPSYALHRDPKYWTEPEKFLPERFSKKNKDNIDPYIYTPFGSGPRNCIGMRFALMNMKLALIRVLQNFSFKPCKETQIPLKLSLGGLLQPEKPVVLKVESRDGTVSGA"}, "[6]": {"biological_target": "T3, RNA-binding protein pos-1 (Caenorhabditis elegans, UniProt G5EF15)", "T3 sequence (G5EF15 whole entry)": "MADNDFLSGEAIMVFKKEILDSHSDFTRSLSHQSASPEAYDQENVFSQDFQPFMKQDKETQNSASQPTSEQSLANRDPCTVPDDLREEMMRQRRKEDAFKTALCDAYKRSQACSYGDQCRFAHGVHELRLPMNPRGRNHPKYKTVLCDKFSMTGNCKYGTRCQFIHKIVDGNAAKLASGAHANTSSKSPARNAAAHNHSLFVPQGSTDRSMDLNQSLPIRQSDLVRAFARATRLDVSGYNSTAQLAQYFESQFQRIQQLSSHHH", "experiment": "disruptors of C. elegans POS-1 RNA interaction – biochemical, fluorescence polarization, dose response (AID 1964);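 further: purified POS-1 fused to maltose binding protein made in E. coli; potency of compounds blocking POS-1 binding to fluorescent RNA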"}, "[7]": {"biological_target": "T4, Zinc finger protein mex-5 (Caenorhabditis elegans, UniProt Q9XUB2)", "T4 sequence (Q9XUB2 whole entry)": "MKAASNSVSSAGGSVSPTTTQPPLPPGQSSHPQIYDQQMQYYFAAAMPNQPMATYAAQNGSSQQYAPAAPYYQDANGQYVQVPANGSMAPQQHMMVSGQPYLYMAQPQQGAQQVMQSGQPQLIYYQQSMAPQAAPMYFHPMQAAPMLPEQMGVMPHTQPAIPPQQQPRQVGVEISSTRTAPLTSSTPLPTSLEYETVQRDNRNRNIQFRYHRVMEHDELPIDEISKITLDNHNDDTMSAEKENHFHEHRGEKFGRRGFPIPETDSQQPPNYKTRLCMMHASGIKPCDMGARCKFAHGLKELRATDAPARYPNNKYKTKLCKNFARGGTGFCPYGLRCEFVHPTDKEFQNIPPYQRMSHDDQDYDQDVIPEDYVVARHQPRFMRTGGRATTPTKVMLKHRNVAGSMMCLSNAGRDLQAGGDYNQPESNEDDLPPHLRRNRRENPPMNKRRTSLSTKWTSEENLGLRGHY", "experiment": "potency of MEX-5 RNA-binding blockers – biochemical, C. elegans, fluorescence polarization, dose response (AID 1960)"}, "[8]": {"biological_target": "UDP-galactopyranose mutase (Mycobacterium tuberculosis, UniProt P9WIQ1)", "sequence (P9WIQ1 whole entry)": "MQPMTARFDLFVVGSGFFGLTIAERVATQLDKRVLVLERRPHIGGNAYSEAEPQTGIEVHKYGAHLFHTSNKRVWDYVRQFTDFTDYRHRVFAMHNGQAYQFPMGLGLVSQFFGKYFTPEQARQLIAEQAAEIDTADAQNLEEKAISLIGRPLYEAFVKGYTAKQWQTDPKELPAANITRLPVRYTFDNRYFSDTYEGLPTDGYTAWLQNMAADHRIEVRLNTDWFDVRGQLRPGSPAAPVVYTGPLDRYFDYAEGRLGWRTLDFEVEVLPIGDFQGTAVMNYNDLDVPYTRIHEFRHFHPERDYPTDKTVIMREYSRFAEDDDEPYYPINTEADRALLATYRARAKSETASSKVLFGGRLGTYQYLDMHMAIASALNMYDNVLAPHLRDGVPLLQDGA", "experiment": "Inhibitors of Mycobacterium tuberculosis UDP-galactopyranose mutase (UGM) enzyme Measured in Biochemical System Using Plate Reader - 2105-02_Inhibitor_Dose_CherryPick_Activity. [Related pubchem assays (depositor defined):AID504439]"}, "[9]": {"biological_target": "Protein phosphatase methylesterase 1 (Homo sapiens, UniProt Q9Y570)", "sequence (Q9Y570 whole entry)": "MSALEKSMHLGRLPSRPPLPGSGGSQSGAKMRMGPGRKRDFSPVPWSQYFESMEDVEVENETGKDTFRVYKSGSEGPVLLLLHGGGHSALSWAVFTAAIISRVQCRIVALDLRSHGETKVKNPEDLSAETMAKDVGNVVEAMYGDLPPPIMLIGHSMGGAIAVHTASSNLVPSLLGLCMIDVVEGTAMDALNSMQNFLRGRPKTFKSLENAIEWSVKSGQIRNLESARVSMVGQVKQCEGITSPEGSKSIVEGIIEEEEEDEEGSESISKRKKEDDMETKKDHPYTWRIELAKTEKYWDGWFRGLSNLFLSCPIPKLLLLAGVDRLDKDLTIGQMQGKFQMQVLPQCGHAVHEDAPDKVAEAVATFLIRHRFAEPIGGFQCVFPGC", "experiment": "inhibition of PME-1 probe labeling – gel-based ABPP, IC50, set 1, late-stage follow-up (AID 463130)", "assay_type": "functional"}, "[10]": {"biological_target": "DNA damage-inducible transcript 3 protein (Mus musculus, UniProt P35639)", "sequence (P35639 whole entry)": "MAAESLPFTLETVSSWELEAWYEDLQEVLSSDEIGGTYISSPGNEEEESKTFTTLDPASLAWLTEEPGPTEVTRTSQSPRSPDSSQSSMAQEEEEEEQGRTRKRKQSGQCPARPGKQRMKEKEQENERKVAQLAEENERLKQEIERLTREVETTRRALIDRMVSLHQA", "assay_type": "functional, Cricetulus griseus"}, "X-box-binding protein 1": {"biological_target": "T5, X-box-binding protein 1 (Homo sapiens, UniProt P17861)", "T5 sequence (P17861 whole entry)": "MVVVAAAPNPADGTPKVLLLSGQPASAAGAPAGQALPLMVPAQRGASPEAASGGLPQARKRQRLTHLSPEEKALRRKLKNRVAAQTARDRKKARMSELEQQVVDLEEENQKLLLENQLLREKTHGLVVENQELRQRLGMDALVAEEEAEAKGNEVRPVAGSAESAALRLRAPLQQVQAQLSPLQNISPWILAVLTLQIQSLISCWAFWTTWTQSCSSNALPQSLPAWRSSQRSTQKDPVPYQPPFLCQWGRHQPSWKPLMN", "assay_type": "functional, Cricetulus griseus"}, "[11]": {"biological_target": "T6, Tyrosine-protein phosphatase non-receptor type 7 (Homo sapiens, UniProt P35236)", "T6 sequence (P35236 whole entry)": "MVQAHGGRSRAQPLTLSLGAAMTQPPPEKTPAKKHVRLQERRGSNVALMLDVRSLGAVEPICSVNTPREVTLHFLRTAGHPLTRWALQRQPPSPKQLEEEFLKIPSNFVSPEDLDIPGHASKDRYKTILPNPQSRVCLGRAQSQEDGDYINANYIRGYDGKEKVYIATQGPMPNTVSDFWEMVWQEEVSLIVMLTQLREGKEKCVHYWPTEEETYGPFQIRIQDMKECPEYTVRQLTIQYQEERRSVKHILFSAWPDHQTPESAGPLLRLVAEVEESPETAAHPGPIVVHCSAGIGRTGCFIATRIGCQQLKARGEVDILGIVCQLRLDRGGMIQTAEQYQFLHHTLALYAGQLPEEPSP", "assay_type": "functional"}, "[12]": {"biological_target": "Glyceraldehyde-3-phosphate dehydrogenase (Homo sapiens, UniProt P04406)", "sequence (P04406 whole entry)": "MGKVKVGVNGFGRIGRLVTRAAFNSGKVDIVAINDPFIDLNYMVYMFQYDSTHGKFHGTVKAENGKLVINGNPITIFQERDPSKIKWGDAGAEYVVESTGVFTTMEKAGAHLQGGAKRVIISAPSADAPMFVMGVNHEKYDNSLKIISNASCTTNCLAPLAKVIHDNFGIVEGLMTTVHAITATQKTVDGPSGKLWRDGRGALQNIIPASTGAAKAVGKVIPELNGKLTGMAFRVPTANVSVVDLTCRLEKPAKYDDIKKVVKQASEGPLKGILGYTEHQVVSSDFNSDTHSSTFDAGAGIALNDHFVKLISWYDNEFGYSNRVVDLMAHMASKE"}, "[13]": {"biological_target": "Heat shock cognate 71 kDa protein (Homo sapiens, UniProt P11142)", "sequence (P11142 whole entry)": "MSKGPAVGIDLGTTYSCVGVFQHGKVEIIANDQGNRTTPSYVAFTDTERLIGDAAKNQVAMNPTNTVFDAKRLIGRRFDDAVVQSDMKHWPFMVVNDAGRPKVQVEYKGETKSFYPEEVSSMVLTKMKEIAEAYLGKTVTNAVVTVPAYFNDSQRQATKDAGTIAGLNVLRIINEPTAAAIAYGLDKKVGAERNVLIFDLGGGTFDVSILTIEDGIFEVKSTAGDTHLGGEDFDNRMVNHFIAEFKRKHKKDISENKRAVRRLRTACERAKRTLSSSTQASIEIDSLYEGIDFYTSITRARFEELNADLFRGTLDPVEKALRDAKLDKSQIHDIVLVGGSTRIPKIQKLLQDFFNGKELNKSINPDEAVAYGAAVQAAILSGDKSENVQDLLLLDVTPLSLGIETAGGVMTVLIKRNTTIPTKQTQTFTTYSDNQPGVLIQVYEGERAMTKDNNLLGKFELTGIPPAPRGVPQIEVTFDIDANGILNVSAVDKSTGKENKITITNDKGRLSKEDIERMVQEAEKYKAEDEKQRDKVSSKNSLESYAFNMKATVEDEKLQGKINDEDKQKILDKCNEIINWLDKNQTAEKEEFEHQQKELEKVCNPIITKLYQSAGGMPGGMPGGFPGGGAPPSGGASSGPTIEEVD", "experiment": "In Vitro Hsc70 Dose Response Fluorescence Polarization Assay. [Related pubchem assays: 1072 ]"}, "[14]": {"biological_target": "Heat shock 70 kDa protein 1A (Homo sapiens, UniProt P0DMV8)", "sequence (P0DMV8 whole entry)": "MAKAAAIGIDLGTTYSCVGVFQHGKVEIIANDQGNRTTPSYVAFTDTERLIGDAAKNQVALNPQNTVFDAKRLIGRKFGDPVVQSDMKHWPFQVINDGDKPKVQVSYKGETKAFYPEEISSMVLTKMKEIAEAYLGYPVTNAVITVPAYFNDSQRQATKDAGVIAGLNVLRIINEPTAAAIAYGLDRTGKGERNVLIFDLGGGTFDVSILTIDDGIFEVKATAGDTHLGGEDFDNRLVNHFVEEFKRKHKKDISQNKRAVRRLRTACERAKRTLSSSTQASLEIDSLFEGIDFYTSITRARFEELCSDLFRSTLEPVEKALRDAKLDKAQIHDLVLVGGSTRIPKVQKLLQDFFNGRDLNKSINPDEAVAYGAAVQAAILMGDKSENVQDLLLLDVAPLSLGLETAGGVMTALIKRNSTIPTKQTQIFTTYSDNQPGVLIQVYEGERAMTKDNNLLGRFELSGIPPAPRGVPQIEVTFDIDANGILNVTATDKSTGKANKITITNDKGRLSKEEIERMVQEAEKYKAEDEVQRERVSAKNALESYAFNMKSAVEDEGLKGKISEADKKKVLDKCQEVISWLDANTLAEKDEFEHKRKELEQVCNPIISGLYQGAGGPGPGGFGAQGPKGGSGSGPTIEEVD", "experiment": "inhibition of Hsp70 binding activity – biochemical, fluorescence polarization, SAR follow-up (AID 1072)"}, "[15]": {"biological_target": "T7, Dual specificity protein phosphatase 6 (Rattus norvegicus, UniProt Q64346)", "T7 sequence (Q64346 whole entry)": "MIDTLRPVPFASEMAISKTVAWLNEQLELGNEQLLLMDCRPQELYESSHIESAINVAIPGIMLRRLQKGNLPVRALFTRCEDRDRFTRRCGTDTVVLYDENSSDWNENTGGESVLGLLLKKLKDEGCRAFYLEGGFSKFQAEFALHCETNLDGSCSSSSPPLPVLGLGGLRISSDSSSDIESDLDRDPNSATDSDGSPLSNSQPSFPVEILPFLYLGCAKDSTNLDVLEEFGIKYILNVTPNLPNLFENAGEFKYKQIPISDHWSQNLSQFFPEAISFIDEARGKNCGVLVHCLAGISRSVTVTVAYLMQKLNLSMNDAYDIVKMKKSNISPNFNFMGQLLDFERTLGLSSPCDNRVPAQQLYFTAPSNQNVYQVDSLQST"}, "[16]": {"biological_target": "T7, Dual specificity protein phosphatase 6", "assay_type": "functional"}},
  "note": "Active and inactive are the calls of the source.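 Wherever Absolute IC50 (XBP1) is given: confirmatory dose-response counter-screen serving a CHOP assay.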",
  "data": [
    {"smiles": "CCOc1cccc(-c2nc(C(N)=O)c3nc(O)n(-c4cccc(Cl)c4)c3n2)c1O", "values": [
      {"measurement": "EC50", "setting": "[1]", "result": "> 100 µM (inactive)"},
      {"measurement": "EC50", "setting": "[2]", "result": "4.9 µM (active)"},
      {"measurement": "EC50", "setting": "[3]", "result": "3.66 µM (active)"},
      {"measurement": "EC50", "setting": "[4]", "result": "2.41 µM (active)"}
    ]},
    {"smiles": "COc1ccc(-c2nnc(-c3cccnc3)o2)cc1", "values": [
      {"measurement": "IC50", "setting": "[5]", "result": "> 32 µM (inactive)"},
      {"measurement": "AC50", "setting": "Cytochrome P450 3A4", "result": "1.58 µM (inconclusive)"}
    ]},
    {"smiles": "NC(=O)Cn1cc(C=C2C(=O)NC(=O)NC2=O)c2ccccc21", "values": [
      {"measurement": "EC50", "setting": "[6]", "result": "> 300 µM (inconclusive)"},
      {"measurement": "EC50", "setting": "[7]", "result": "> 300 µM (inconclusive)"},
      {"measurement": "AC50", "setting": "[8]", "result": "82.3 µM (active)"}
    ]},
    {"smiles": "COC(=O)N1C(=O)[C@@](CC(C)C)(c2ccccc2)N1C(=O)OC", "values": [
      {"measurement": "IC50", "setting": "[9]", "result": "0.227 µM (active)"}
    ]},
    {"smiles": "C=CCO/C(O)=C1\\C(C)=NC(SCC(=O)Nc2ccccc2)=C(C#N)C1c1ccco1", "note": "(stereo not drawn)", "values": [
      {"measurement": "Absolute IC50 (CHOP)", "setting": "[10]", "result": 10, "unit": "µM"},
      {"measurement": "Absolute IC50 (XBP1)", "setting": "X-box-binding protein 1", "result": 10, "unit": "µM"}
    ]},
    {"smiles": "Cc1ccc(C)c2c1NC(C(=O)O)C1CC=CC21", "note": "(stereo not drawn)", "values": [
      {"measurement": "IC50", "setting": "[11]", "result": "> 100 µM (not active)"},
      {"measurement": "IC50", "setting": "[12]", "result": "> 100 µM (not active)"},
      {"measurement": "IC50", "setting": "[13]", "result": "> 100 µM (not active)"},
      {"measurement": "IC50", "setting": "[14]", "result": "> 100 µM (not active)"},
      {"measurement": "IC50", "setting": "[15]", "result": "> 100 µM (inactive)"},
      {"measurement": "IC50", "setting": "[16]", "result": "> 100 µM (inactive)"}
    ]}
  ]
}
